Laboratory results: US10029986B2, “Alkynyl pyridine-substituted amide compound and pesticide” (NISSAN CHEMICAL INDUSTRIES, LTD., priority 2014, dated 2018)

tested on: Puccinia recondita; experiment: Test on the preventive effect against wheat leaf rust; assay type: in vivo; conditions: 216 h, test solution A 500 ppm, 5 ml per pot, wheat 1.3-leaf stage, 1 day inoculation chamber then 8 days at 20° C.
Procedure: Compounds of the present invention were dissolved in a solvent for emulsion (a mixture of Sorpol (registered trademark) 3005XL (manufactured by Toho Chemical Industry Co., Ltd.): N-methylpyrrolidone: Solvesso (registered trademark) 200 (manufactured by ExxonMobil Chemical) in a ratio of 1:5:2) to prepare 20 wt % emulsifiable concentrates. Then, distilled water was added to dilute the emulsifiable concentrates to the prescribed concentration (500 ppm), and the obtained solutions were used in the following the Test Examples 1 to 8. Wheat (varieties: Norin 61) was seeded in 90 cm^3 plastic pot, and at 1.3-leaf stage, 5 ml per pot of test solution A of the compounds of the present invention was applied. One day after treatment, a suspension of spores of Puccinia recondita was sprayed to the wheat, and the pot was left in the inoculation chamber at 20° C. under humidity of 100% RH for 1 day. Thereafter, the pot was placed in an air-conditioned greenhouse (20° C.) for 8 days. The proportion of the formed lesion in the inoculated leaves were counted to calculate the control value in accordance with the same formula as in the Test Example 1. The test was carried out in duplicate.

Compound | pest or weed control at 500 µg/mL [%]
CC(CNC(=O)c1cn(C)nc1C(F)F)c1ncc(C#CC2CC2)cc1Cl (stereo not drawn) [8-007] | ≥ 70
CC(Cc1ncc(C#Cc2ccccc2)cc1Cl)NC(=O)c1cn(C)nc1C(F)F (stereo not drawn) [8-027] | ≥ 70
O=C(NCC(F)(F)c1ncc(C#CC2CC2)cc1Cl)c1cccnc1C(F)F [3-003, N-[2-[3-chloro-5-(cyclopropylethynyl)pyridin-2-yl]-2,2-difluoroethyl]-2-(difluoromethyl)nicotinamide] | ≥ 70
CC(Cc1ncc(C#CC2CC2)cc1Cl)NC(=O)c1cn(C)nc1C(F)F (stereo not drawn) [8-024, N-[2-[3-chloro-5-(cyclopropylethynyl)pyridin-2-yl]-1-methylethyl]-3-difluoromethyl-1-methyl-1H-pyrazole-4-carboxamide] | ≥ 70
Cn1cc(C(=O)NCC(c2ncc(C#CC3CC3)cc2Cl)C2CC2)c(C(F)F)n1 (stereo not drawn) [8-009] | ≥ 70
CC(C)(C)C#Cc1cnc(CCNC(=O)c2cccnc2C(F)F)c(Cl)c1 [3-002] | ≥ 70
O=C(NCCc1ncc(C#CC2CC2)cc1Cl)c1cccnc1C(F)F [3-001, N-[2-[3-chloro-5-(cyclopropylethynyl)pyridin-2-yl]ethyl]-2-(difluoromethyl)nicotinamide] | ≥ 70
COC(=O)C(CNC(=O)c1cn(C)nc1C(F)F)c1ncc(C#CC2CC2)cc1Cl (stereo not drawn) [8-022, 2-[3-chloro-5-(cyclopropylethynyl)pyridin-2-yl]-3-(3-difluoromethyl-1-methyl-1H-pyrazole-4-carboxamide)propionic acid methyl ester] | ≥ 70
COC(c1ncc(C#CC(C)(C)C)cc1Cl)C(C)NC(=O)c1ccccc1C(F)(F)F (stereo not drawn) [1-025] | ≥ 70
COC(c1ncc(C#CC2CC2)cc1Cl)C(C)NC(=O)c1nccnc1C(F)(F)F (stereo not drawn) [4-004] | ≥ 70
COC(c1ncc(C#CC2CC2)cc1Cl)C(C)NC(=O)c1ccccc1C(F)(F)F (stereo not drawn) [1-024] | ≥ 70
CSC(CNC(=O)c1cccnc1C(F)F)c1ncc(C#CC2CC2)cc1Cl (stereo not drawn) [3-020] | ≥ 70
Cn1cc(C(=O)NCCc2ncc(C#CC(C)(C)C)cc2Cl)c(C(F)F)n1 [8-002] | ≥ 70
O=C(NCC(c1ncc(C#CC2CC2)cc1Cl)C1CC1)c1cccnc1C(F)F (stereo not drawn) [3-008] | ≥ 70
Cn1cc(C(=O)NCCc2ncc(C#CC3CC3)cc2Cl)c(C(F)F)n1 [8-001] | ≥ 70
CC(NC(=O)c1ccccc1C(F)(F)F)C(OCc1ccccc1)c1ncc(C#CC2CC2)cc1Cl (stereo not drawn) [1-031, N-[2-benzyloxy-2-[3-chloro-5-(cyclopropylethynyl)pyridin-2-yl]-1-methylethyl]-2-(trifluoromethyl)benzamide] | ≥ 70
C=C(CNC(=O)c1cn(C)nc1C(F)F)c1ncc(C#CC2CC2)cc1Cl [8-011, N-[2-[3-chloro-5-(cyclopropylethynyl)pyridin-2-yl]-2-propenyl]-3-difluoromethyl-1-methyl-1H-pyrazole-4-carboxamide] | ≥ 70
COC(c1ncc(C#CC2CC2)cc1Cl)C(C)NC(=O)c1cccnc1C(F)F (stereo not drawn) [3-021] | ≥ 70
